The record followed here is US20240383856A1 (Zedira GmbH, priority 2021, published 2024).

Data set [1] can be described thus: logD by shake flask method (octanol / PBS pH 7.4, HPLC). It counts as physicochemical. The settings on record: octanol / PBS pH 7.4, shake flask. The protocol:
In order to classify the inventive compounds according to their lipophilicity, LogD values (distribution coefficient) were determined by means of the well-established shake flask method, measuring the partition of a compound between an octanol and phosphate-buffered saline (PBS, pH 7.4) by HPLC.
The LogD is pH dependent and is a “predictor” for in-vivo properties. LogD combines lipophilicity (intrinsic structural property of the molecule, logP) and ionizability (pKa). Compounds with a moderate lipophilicity (LogD values from 0 to 3) are usually advantaged for oral absorption, being in balance between solubility and permeability. However, sophisticated formulation of a compound might improve oral bioavailability for highly lipophilic compounds.

Data set [2] deals with T1, recombinant human transglutaminase 2 (Homo sapiens, UniProt P21980).
T1 construct: purchased Zedira T022
T1 sequence (P21980 1-687): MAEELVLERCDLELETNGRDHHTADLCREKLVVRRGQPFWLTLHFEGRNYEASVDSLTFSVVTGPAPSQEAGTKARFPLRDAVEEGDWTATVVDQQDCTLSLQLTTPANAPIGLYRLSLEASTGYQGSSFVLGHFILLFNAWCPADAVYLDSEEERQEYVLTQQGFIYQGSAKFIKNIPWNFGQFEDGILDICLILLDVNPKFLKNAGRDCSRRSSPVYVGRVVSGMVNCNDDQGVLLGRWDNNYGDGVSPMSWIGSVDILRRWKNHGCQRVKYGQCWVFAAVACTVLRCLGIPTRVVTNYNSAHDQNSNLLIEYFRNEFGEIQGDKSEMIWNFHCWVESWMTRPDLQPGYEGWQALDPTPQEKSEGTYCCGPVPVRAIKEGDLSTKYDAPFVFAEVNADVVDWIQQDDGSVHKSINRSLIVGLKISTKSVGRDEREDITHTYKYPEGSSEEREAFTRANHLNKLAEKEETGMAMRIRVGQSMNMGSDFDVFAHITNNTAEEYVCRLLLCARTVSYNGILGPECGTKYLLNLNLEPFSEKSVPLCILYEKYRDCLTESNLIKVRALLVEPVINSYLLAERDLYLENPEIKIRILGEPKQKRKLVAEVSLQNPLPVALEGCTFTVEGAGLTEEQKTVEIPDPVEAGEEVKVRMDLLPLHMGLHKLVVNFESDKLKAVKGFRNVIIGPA
In words: Transglutaminase assay (DCC-assay): incorporation of dansylcadaverine into dimethylcasein. The settings on record: recombinant human TG2 10 nM; dansylcadaverine incorporation into dimethylcasein; read-out: IC50 TG2. It counts as biochemical. The protocol:
To illustrate the advantage of branched alkyl moieties over aromatic moieties, we refer to reference compounds Ref. 2 (ZED1227, U.S. Pat. No. 9,434,763 B2) and Ref. 3 (A8, ZED1047). Inhibition data were determined using the classical fluorescent transamidation assay (dansylcadaverine incorporation into methylated casein, DCC-assay) as described [Buchold, C.; Hils, M.; Gerlach, U.; Weber, J.; Pelzer, C.; Heil, A.; Aeschlimann, D.; Pasternack, R. Features of ZED1227: The First-In-Class Tissue Transglutaminase Inhibitor Undergoing Clinical Evaluation for the Treatment of Celiac Disease. Cells 2022, 11, 1667. https://doi.org/10.3390/cells11101667]. Casein is one of the best known high molecular weight (24 kDa) protein substrates for transglutaminases. Please note, the IC50 value of Ref. 3 (A8) published in U.S. Pat. No. 9,434,763 B2 cannot be compared to the present data, relying on a fluorogenic isopeptidase assay.
To this extent, inhibition data were determined using the classical fluorescent transamidation assay (dansylcadaverine incorporation into methylated casein, DCC-assay) as described in Büchold et al. [Büchold, C.; Hils, M.; Gerlach, U.; Weber, J.; Pelzer, C.; Heil, A.; Aeschlimann, D.; Pasternack, R. Features of ZED1227: The First-In-Class Tissue Transglutaminase Inhibitor Undergoing Clinical Evaluation for the Treatment of Celiac Disease. Cells 2022, 11, 1667. https://doi.org/10.3390/cells11101667]. Casein is one of the best known high molecular weight (24 kDa) protein substrates for transglutaminases. Inhibition data of the inventive compounds was compared with inhibition of compounds disclosed in U.S. Pat. No. 9,434,763 B2, particularly, compound A8, which is denoted herein as Reference 3. It is noteworthy that the IC50 values of compounds A8 published in U.S. Pat. No. 9,434,763 B2 and E16 from U.S. Pat. No. 11,072,634 B2 cannot be compared to the present data, relying on a fluorogenic isopeptidase assay.
For the determination of potency of inhibitors against tissue transglutaminase, the incorporation of dansylcadaverine into dimethylcasein (Zedira product T036, Lorand et al., Anal Biochem, 1971, 44:221-31) was measured using recombinant human transglutaminase 2 (Zedira Product T022).
The tissue transglutaminase is diluted in buffer (50 mM Tris-HCl, 7.5 mM CaCl2), 150 mM NaCl, pH=7.4). The final concentration of TG2 in the assay is 10 nM.
A 10 mM inhibitor stock solution is prepared in DMSO, and from this a serial 1:2-fold dilution series is prepared also in DMSO. Each of the initial dilutions is subsequently diluted 1:50-fold with buffer (50 mM Tris-HCl, 7.5 mM CaCl2), 150 mM NaCl, pH=7.4) to yield the final working dilutions containing 2% (v/v) DMSO.
15 μl of inhibitor working dilution are added per well of a 96 well microtiter plate. As control, 15 μl of a 2% (v/v) DMSO solution prepared using the buffer mentioned above are added per well.
Immediately before starting the assay, 600 μl transglutaminase working solution are added to 11.4 ml assay buffer (50 mM Tris-HCl, 10 mM CaCl2), 10 mM glutathione, 2.5% glycerol, 16.7 µM dansylcadaverine, 4 uM N,N-dimethylcasein, 200 mM NaCl, pH=8.0). 285 μl of this reaction mix are added per well containing the inhibitor.
Increase in fluorescence is measured using λex=330 nm and λem=500 nm at 37° C. for 30 min. A slope of the increase in fluorescence between 20 and 30 min is calculated for determination of the IC50 value (inhibitor concentration at which 50% of the initial activity is blocked).
Analysis of enzymatic activity is performed by calculation of the slope of an increase in fluorescence intensity. IC50 values are calculated by plotting the enzymatic activity (as percentage from control containing 2% DMSO instead of inhibitor) against the inhibitor concentration. IC50 is defined as the inhibitor concentration blocking 50% of initial enzyme activity.

Data set [3] is described as follows: Caco-2 permeability assay (CacoReady kit). It counts as in vitro ADME. Particulars: human, Caco-2, Caco-2 barrier, CacoReady kit; above 1×10^−6 cm/s classified as permeable. On the procedure: Permeability coefficients (Papp values) were obtained from Caco-2 barrier studies predicting oral/intestinal bioavailability of the tested compounds. The assays were performed by using CacoReady™ ready-to-use kits from ReadyCell according to the manufacturers protocol.
For orientation: Caco-2 cells form a polarised layer with tight junctions and transporters.

For `CNC(=O)C(=O)CC[C@H](NC(=O)c1ccc2occc2c1)C(=O)Nc1cccn(CC(=O)NC2C3CC4CC2CC(NC(C)=O)(C4)C3)c1=O` (stereo partly drawn) [II-194, (S)-2-(benzofuran-5-carboxamido)-N1-(1-(2-(1-acetylamino-4-aminoadamantane)-2-oxoethyl)-2-oxo-1,2-dihydropyridin-3-yl)-N6-methyl-5-oxohexanediamide], in data set [1], the logD (in general, the decadic logarithm of the distribution of all forms, ionised or not, between an organic phase and buffer at a given pH) was under 1. For the same molecule, in data set [2], the IC50 (as a rule, the midpoint of a concentration-inhibition curve) lay within 40 to 400 nM. Also, the apparent permeability coefficient (Papp) (as a rule, the rate of passage across a membrane or cell layer, normalised by area and donor concentration) in data set [3] is under 1 ×10⁻⁶ cm/s.
The corresponding values for `CNC(=O)C(=O)CC[C@H](NC(=O)c1oc2ccccc2c1C)C(=O)Nc1cccn(CC(=O)N[C@@H]2C[C@H]3CC[C@]2(C)C3(C)C)c1=O` [II-99, (S)-N1-methyl-5-(3-methylbenzofuran-2-carboxamido)-2-oxo-N6-(2-oxo-1-(2-oxo-2-((1R,2R,4R)-1,7,7-trimethylbicyclo[2.2.1]heptan-2-ylamino)ethyl)-1,2-dihydropyridin-3-yl)hexanediamide] are 3 to 5, 40 to 400 nM and 1 to 10 ×10⁻⁶ cm/s.
In data set [1], `CNC(=O)C(=O)CC[C@H](NC(=O)c1sc(C(F)(F)F)nc1Br)C(=O)Nc1cccn(CC(=O)NC2C3CC4CC(C3)CC2C4)c1=O` (stereo partly drawn) [II-16, (S)-2-(4-bromo-2-(trifluoromethyl)thiazole-5-carboxamido)-N1-(1-(2-(2-adamantylamino)-2-oxoethyl)-2-oxo-1,2-dihydropyridin-3-yl)-N6-methyl-5-oxohexanediamide] yielded a logD of 1 to 3. In addition, in data set [2], the IC50 is under 40 nM. The molecule also had an apparent permeability coefficient (Papp) in data set [3] of 1 to 10 ×10⁻⁶ cm/s.
Molecule `CNC(=O)C(=O)CC[C@H](NC(=O)C1CN2CCC1CC2)C(=O)Nc1cccn(CC(=O)NC2C3CC4CC(C3)CC2C4)c1=O` (stereo partly drawn) [II-61, (S)-N1-(1-(2-(2-adamantylamino)-2-oxoethyl)-2-oxo-1,2-dihydropyridin-3-yl)-N6-methyl-5-oxo-2-(quinuclidine-3-carboxamido)hexanediamide] had a logD in data set [1] of 1 to 3. Further, the IC50 in data set [2] is 40 to 400 nM. Besides, the Papp in data set [3] is under 1 ×10⁻⁶ cm/s.
In the case of `CNC(=O)C(=O)CC[C@H](NC(=O)c1oc2ccccc2c1C)C(=O)Nc1cccn(CC(=O)NC2C3CC4CC2CC(F)(C4)C3)c1=O` (stereo partly drawn) [II-69, (S)-N1-(1-(2-(5-fluoroadamantane-2-amino)-2-oxoethyl)-2-oxo-1,2-dihydropyridin-3-yl)-N6-methyl-2-(3-methylbenzofuran-2-carboxamido)-5-oxohexanediamide], the logD in data set [1] was 1 to 3. For the same molecule, the IC50 in data set [2] was under 40 nM. Moreover, the apparent permeability coefficient (Papp) in data set [3] lay in the range of 1 to 10 ×10⁻⁶ cm/s.
The corresponding values for `CNC(=O)C(=O)CC[C@H](NC(=O)[C@@H]1CCCCN1)C(=O)Nc1cccn(CC(=O)NC2C3CC4CC(C3)CC2C4)c1=O` (stereo partly drawn) [II-58, (S)-N1-(1-(2-(2-adamantylamino)-2-oxoethyl)-2-oxo-1,2-dihydropyridin-3-yl)-N6-methyl-5-oxo-2-((S)-piperidine-2-carboxamido)hexanediamide] are 1 to 3, 40 to 400 nM and under 1 ×10⁻⁶ cm/s.
In data set [1], `CNC(=O)C(=O)CC[C@H](NC(=O)c1snnc1C)C(=O)Nc1cccn(CC(=O)N[C@@H]2C[C@@H]3CC[C@H]2C3)c1=O` [II-156, (S)-N1-(1-(2-((1S,2R,4R)-bicyclo[2.2.1]heptan-2-ylamino)-2-oxoethyl)-2-oxo-1,2-dihydropyridin-3-yl)-N6-methyl-2-(4-methyl-1,2,3-thiadiazole-5-carboxamido)-5-oxohexanediamide] came in with a log distribution coefficient (logD) of under 1. Moreover, in data set [2], the IC50 is 40 to 400 nM. Also, in data set [3], the Papp was under 1 ×10⁻⁶ cm/s.
`CCc1c(C(=O)N[C@@H](CCC(=O)C(=O)NC2CCCCC2)C(=O)Nc2cccn(CC(=O)NC34CC(C3)C4)c2=O)oc2ccccc12` [II-182, (S)-N1-(1-(2-(bicyclo[1.1.1]pentan-1-ylamino)-2-oxoethyl)-2-oxo-1,2-dihydropyridin-3-yl)-N6-cyclohexyl-2-(3-ethylbenzofuran-2-carboxamido)-5-oxohexanediamide] came in with a logD in data set [1] of 1 to 3. Moreover, the IC50 in data set [2] fell in the range of 40 to 400 nM. Further, the Papp in data set [3] fell in the range of 1 to 10 ×10⁻⁶ cm/s.
The matching figures for `CNC(=O)C(=O)CC[C@H](NC(=O)c1cc(Cl)sc1Cl)C(=O)Nc1cccn(CC(=O)N[C@@H]2C[C@@H]3CC[C@H]2C3)c1=O` [II-155, (S)-N1-(1-(2-((1S,2R,4R)-bicyclo[2.2.1]heptan-2-ylamino)-2-oxoethyl)-2-oxo-1,2-dihydropyridin-3-yl)-2-(2,5-dichlorothiophene-3-carboxamido)-N6-methyl-5-oxohexanediamide]: 1 to 3, under 40 nM and 1 to 10 ×10⁻⁶ cm/s.
In the case of `CNC(=O)C(=O)CC[C@H](NC(=O)c1snnc1C(C)C)C(=O)Nc1cccn(CC(=O)NC2C3CC4CC(C3)CC2C4)c1=O` (stereo partly drawn) [II-203, (S)-2-(4-isopropyl-1,2,3-thiadiazole-5-carboxamido)-N1-(1-(2-(2-adamantylamino)-2-oxoethyl)-2-oxo-1,2-dihydropyridin-3-yl)-N6-methyl-5-oxohexanediamide], in data set [1], the logD lay within 1 to 3. In addition, the IC50 in data set [2] was in the range of 40 to 400 nM. This molecule had an apparent permeability (Papp) in data set [3] of under 1 ×10⁻⁶ cm/s.
Consider `CNC(=O)C(=O)CC[C@H](NC(=O)c1ccnn1C)C(=O)Nc1cccn(CC(=O)N[C@H]2C[C@H]3CC[C@]2(C)C3(C)C)c1=O` [II-163, (S)-N1-methyl-5-(1-methyl-1H-pyrazole-5-carboxamido)-2-oxo-N6-(2-oxo-1-(2-oxo-2-((1R,2S,4R)-1,7,7-trimethylbicyclo[2.2.1]heptan-2-ylamino)ethyl)-1,2-dihydropyridin-3-yl)hexanediamide], for which the logD in data set [1] is under 1. Moreover, in data set [2], the IC50 was in the range of 40 to 400 nM. Moreover, the apparent permeability coefficient (Papp) in data set [3] is under 1 ×10⁻⁶ cm/s.
